Data reported in patent US10981932B2, “Macrocyclic indole derivatives” (Bayer Aktiengesellschaft, priority 2016, dated 2021).
“And” between values parts separate entries of the source, which are not always exact repeats. Identical values can stand only once. Like-named read-outs stand apart in the source and are kept apart here.

Legend:
SUDHL5 [1] = experiment: Induction of cytotoxicity (CellTiter-Glo, 5 h), SUDHL5
Method: Therefore, cytotoxicity assays were run in parallel in SUDHL5 and SUDHL10 cells.
The different cell lines were plated in culture medium (RPMI 1640 [GIBCO #22400-089]supplemented with 10% Fetal Bovine Serum) at a density of 3.300 cells in 30 μl/well in a sterile, solid black, flat bottom, polystyrene, TC-treated 384-well microplate (Corning #3571) using Multidrop Combi Reagent Dispenser. As a control, medium without cells was also added to the plate. Cells were incubated in a humidified incubator at 37° C. overnight. On the next day, the cells were treated with compounds (stock solution, 10 mM in DMSO) using the HP D300 Digital Dispenser in a concentration range of 3.3×10e-5 M (33 μM) to 5×10e-9 M (5 nM) in a single-dot curve with at least 16 dilutions and a DMSO concentration of 0.33%. Rim wells were excluded. The cells were incubated for 5 h hours in a humidified incubator at 37° C. After this incubation, 30 μl of CellTiter-Glo@ Luminescent Cell Viability reagent (Promega, G7573) was added to each well using the Multidrop Combi Reagent Dispenser, followed by 15 min incubation on a shaker at room temperature. Finally, luminescence was read at 0.1 ms, with a gain of 3000 using the PHERAstar FS microplate reader (BMG Labtech).
The Bella DRC Master Sheet was used to calculate IC50s, with fixed CI=0 and C0=1.

SUDHL5 [2] = experiment: Anti-proliferative effect (CellTiter-Glo, 72 h), SUDHL5; format: cell-based; settings: SUDHL5 cells, antiproliferation, 72 h incubation, median, read-out: Antiproli SUDHL5 [M] (median)
Outline: (§1)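 After seeding, one plate is read right away by CellTiter-Glo luminescence to fix time zero. The treated plates stay at 37 °C in humidified air for 72 h and are then measured with the same reagent and 10 min incubation.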

SUDHL10 [3] = experiment: Induction of caspase-3/7 activity (Caspase-Glo 3/7), SUDHL10; format: cell-based; settings: caspase-3/7 induction, SUDHL10 cells, 3 h treatment, median
Outline: (§2)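 Apoptosis induction measured as caspase-3/7 activity (Caspase-Glo 3/7) in DLBCL lines after 3 h treatment at 37 °C; EC50 derived relative to the reference compound's maximal induction, with C0 fixed at 1.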

A2780 = experiment: Anti-proliferative effect (CellTiter-Glo, 72 h), A2780; format: cell-based; settings: A2780 cells, median, read-out: IC50 antiproliferation assay A2780 [M] (median)
Outline: as §1

SUDHL10 [4] = experiment: Anti-proliferative effect (CellTiter-Glo, 72 h), SUDHL10; format: cell-based; settings: SUDHL10 cells, antiproliferation, 72 h incubation, median, read-out: Antiproli SUDHL10 [M] (median)
Outline: as §1

MCL-1 = MCL-1 (Homo sapiens, UniProt Q07820); experiment: Protein-protein interaction assay MCL-1/Noxa BH3 peptide (MCL-1 assay), TR-FRET; format: binding; settings: MBP-MCL-1 / Noxa BH3-derived peptide, median
Outline: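 Inhibition values were normalized between DMSO controls with all reagents and controls lacking MCL-1. The binding competition used 1 nM MBP-MCL-1 in pH 7 Tris buffer containing 50 mM KF and 100 mM NaCl, with a 10 min compound preincubation at 22 °C.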

SUDHL10 [5] = experiment: Induction of cytotoxicity (CellTiter-Glo, 5 h), SUDHL10
SUDHL5 [6] = experiment: Induction of caspase-3/7 activity (Caspase-Glo 3/7), SUDHL5; format: cell-based; settings: caspase-3/7 induction, SUDHL5 cells, 3 h treatment, median
Outline: as §2

OPM2 = experiment: Anti-proliferative effect (CellTiter-Glo, 72 h), OPM2; format: cell-based; settings: OPM2 cells, median, read-out: IC50 antiproliferation assay OPM2 [M] (median)
Outline: as §1

[7] = Homo sapiens, SU-DHL-5, 5 h, read-out: Cytotox SUDHL5 [M] (median), SUDHL5 cells, cytotoxicity induction, CellTiter-Glo, 5 h incubation, median
[8] = Homo sapiens, SU-DHL10, 5 h, read-out: Cytotox SUDHL10 [M] (median), SUDHL10 cells, cytotoxicity induction, CellTiter-Glo, 5 h incubation, median
[9] = read-out: Cytotox SUDHL5 [M] (median), SUDHL5 cells, cytotoxicity induction, CellTiter-Glo, 5 h incubation, median
[10] = read-out: Cytotox SUDHL10 [M] (median), SUDHL10 cells, cytotoxicity induction, CellTiter-Glo, 5 h incubation, median

Chain of MCL-1 (Q07820 whole entry): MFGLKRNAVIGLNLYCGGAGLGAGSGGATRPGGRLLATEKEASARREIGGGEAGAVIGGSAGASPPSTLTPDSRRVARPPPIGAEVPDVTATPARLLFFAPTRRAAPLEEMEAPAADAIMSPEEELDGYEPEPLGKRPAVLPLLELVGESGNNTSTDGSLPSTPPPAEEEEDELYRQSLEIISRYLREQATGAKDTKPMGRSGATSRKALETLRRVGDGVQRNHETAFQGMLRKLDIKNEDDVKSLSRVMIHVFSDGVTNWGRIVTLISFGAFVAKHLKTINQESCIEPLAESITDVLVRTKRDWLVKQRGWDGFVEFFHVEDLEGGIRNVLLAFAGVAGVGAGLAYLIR

Compound	IC50 (SUDHL5 [1]; [7]) [M]	IC50 (SUDHL5 [2]; Homo sapiens, SU-DHL-5, 72 h) [M]	EC50 (SUDHL10 [3]; Homo sapiens, SU-DHL10, 3 h) [µM]	IC50 (A2780; Homo sapiens, A2780, 72 h) [M]	IC50 (SUDHL10 [4]; Homo sapiens, SU-DHL10, 72 h) [M]	IC50 (MCL-1) [µM]	IC50 (SUDHL10 [5]; [8]) [M]	EC50 (SUDHL5 [6]; Homo sapiens, SU-DHL-5, 3 h) [µM]	IC50 (OPM2; Homo sapiens, OPM-2, 72 h) [M]	IC50 (SUDHL5 [1]; [9])	IC50 (SUDHL5 [2]) [M]	EC50 (SUDHL10 [3]) [µM]	IC50 (A2780) [M]	IC50 (SUDHL10 [4]) [M]	IC50 (SUDHL10 [5]; [10]) [M]	EC50 (SUDHL5 [6]) [µM]	IC50 (OPM2) [M]
CCN(CC)S(=O)(=O)N1CCN(c2ccc(OCc3nn(C)c4c3-c3cccc5c(CCCOc6cccc7ccccc67)c(C(=O)O)n(c35)CCCCOC4)cc2)CC1 (racemic) [Example 1-3, (rac)-3-({4-[4-(diethylsulfamoyl)piperazin-1-yl]phenoxy}methyl)-1-methyl-7-[3-(naphthalen-1-yloxy)propyl]-1,10,11,12,13,15-hexahydropyrazolo[4′,3′:9,10][1,6]oxazacycloundecino[8,7,6-hi]indole-8-carboxylic Acid]	2.68e-06	1.27e-06	2.36	4.86e-06	1.9e-06	0.00378	2.64e-06	2	2.11e-06								
CCOCc1nn(C)c2c1-c1cccc3c(CCCOc4cccc5ccccc45)c(C(=O)O)n(c13)CCCCOC2 (single isomer, unassigned; enantiomer 2) [Example 170, 3-(ethoxymethyl)-1-methyl-7-[3-(naphthalen-1-yloxy)propyl]-1,10,11,12,13,15-hexahydropyrazolo[4′,3′:9,10][1,6]oxazacycloundecino[8,7,6-hi]indole-8-carboxylic Acid (Enantiomer 2)]						0.00297				6.94e-06 M	1.01e-05	15.6	2.67e-05	4.36e-06	2e-05	5.36	1.34e-05
Cc1c2c(nn1C)COCCCn1c(C(=O)O)c(CCCOc3cccc4ccccc34)c3cccc-2c31 (racemic) [Example 063, (rac)-10,11-dimethyl-1-[3-(naphthalen-1-yloxy)propyl]-5,6,8,10-tetrahydro-4H-pyrazolo[4′,3′:8,9][1,5]oxazecino[7,6,5-hi]indole-2-carboxylic Acid]	7.73e-06	3.98e-06	16.5	2.02e-05	5.35e-06	0.0106	1.16e-05	7.71	1.36e-05								
CCOCc1nn(C)c2c1-c1cccc3c(CCCOc4cccc5ccccc45)c(C(=O)O)n(c13)CCCCOC2 (single isomer, unassigned; enantiomer 1) [Example 169, 3-(ethoxymethyl)-1-methyl-7-[3-(naphthalen-1-yloxy)propyl]-1,10,11,12,13,15-hexahydropyrazolo[4′3′:9,10][1,6]oxazacycloundecino[8,7,6-hi]indole-8-carboxylic Acid (Enantiomer 1)]				2.02e-05		0.0184	2.01e-05		2.04e-05	1.74e-05 M and > 3.3e-05 M	2.68e-05	> 33		2.02e-05	> 3.3e-05	> 33	
CC(C)OCc1nn(C)c2c1-c1cccc3c(CCCOc4cccc5ccccc45)c(C(=O)O)n(c13)CCCN(C)C2 (single isomer, unassigned) [Example 1-72, 7,9-dimethyl-1-[3-(naphthalen-1-yloxy)propyl]-1-[(propan-2-yloxy)methyl]-4,5,6,7,8,9-hexahydropyrazolo[3′,4′:7,8][1,5]diazecino[9,10,1-hi]indole-2-carboxylic Acid]		2.38e-05				0.0126				8.53e-06 M		> 33	1.85e-05	1.37e-05	1.98e-05	> 33	1.53e-05
Cc1c2c(nn1C)COCCCCn1c(C(=O)O)c(CCCOc3cccc4ccccc34)c3cccc-2c31 (single isomer, unassigned; enantiomer 2) [Example 1-38, (−)-2,3-dimethyl-7-[3-(naphthalen-1-yloxy)propyl]-2,10,11,12,13,15-hexahydropyrazolo[4′,3′:9,10][1,6]oxazacycloundecino[8,7,6-hi]indole-8-carboxylic Acid (Enantiomer 2)]						0.0751				> 3.3e-05 M	2.3e-05	> 33	> 3.3e-05	1.49e-05	> 3.3e-05	> 33	3.22e-05
Cc1c2c(nn1CCN1CCOCC1)CN(C)CCCn1c(C(=O)O)c(CCCOc3cccc4ccccc34)c3cccc-2c31 (racemic) [Example 059, (rac)-7,11-dimethyl-10-[2-(morpholin-4-yl)ethyl]-1-[3-(naphthalen-1-yloxy)propyl]-4,5,67,8,10-hexahydropyrazolo[3′,4′:7,8][1,5]diazecino[9,10,1-hi]indole-2-carboxylic Acid]	2.54e-05	6.96e-06	27.7	2.91e-05	1.99e-05	0.0239	1.9e-05	15.9	2.52e-05								
Cn1nc(COc2ccc(C3=CCOCC3)cc2)c2c1COCCCCn1c(C(=O)O)c(CCCOc3cccc4ccccc34)c3cccc-2c31 (single isomer, unassigned) [Example 1-63, 3-{[4-(3,6-dihydro-2H-pyran-4-yl)phenoxy]methyl}-1-methyl-7-[3-(naphthalen-1-yloxy)propyl]-1,10,11,12,13,15-hexahydropyrazolo[4′,3′:9,10][1,6]oxazacycloundecino[8,7,6-hi]indole-8-carboxylic Acid]						0.00864				6.23e-06 M	3.37e-06	7.32	1.11e-05	7.77e-06	7.04e-06	7.66	1.18e-05
Cn1nc(COc2ccc(N3CCOCC3)cc2)c2c1COCCCCn1c(C(=O)O)c(CCCOc3cccc4ccccc34)c3cccc-2c31 (single isomer, unassigned; enantiomer 2) [Example 123, 1-methyl-3-{[4-(morpholin-4-yl)phenoxy]methyl}-7-[3-(naphthalen-1-yloxy)propyl]-1,10,11,12,13,15-hexahydropyrazolo[4′,3′:9,10][1,6]oxazacycloundecino[8,7,6-hi]indole-8-carboxylic Acid (Enantiomer 2)]						0.00314				3.13e-06 M	2.28e-06	7.36	1.14e-05	1.01e-05	2.1e-05	4.11	4.32e-06
COCc1nn(C)c2c1-c1cccc3c(CCCOc4cccc5ccccc45)c(C(=O)O)n(c13)CCCN(C)C2 (single isomer, unassigned; enantiomer 1) [Example 1-103, 11-(methoxymethyl)-7,9-dimethyl-1-[3-(1-naphthyloxy)propyl]-4,5,6,7,8,9-hexahydropyrazolo[3′,4′:7,8][1,5]diazecino[9,10,1-hi]indole-2-carboxylic Acid (Enantiomer 1)]	3.97e-06	3.92e-06	7.79	> 3.3e-05	1.02e-05	0.00735	1.27e-05	2.83	1.58e-05								
CN1CCCn2c(C(=O)O)c(CCCOc3cccc4ccccc34)c3cccc(c32)-c2cnn(C)c2C1 (racemic) [Example 1-96, (rac)-7,9-dimethyl-1-[3-(naphthalen-1-yloxy)propyl]-4,5,6,7,8,9-hexahydropyrazolo[3′,4′:7,8][1,5]diazecino[9,10,1-hi]indole-2-carboxylic Acid]	1.84e-05	> 3.3e-05	> 33	2.05e-05	1.44e-05	0.0173	2.95e-05	23.9	> 3.3e-05								
